What was measured:
[1] = system: Poly(dA-dT)oligonucleotide; test: Binding affinity to minor groove of poly(dA:dT) dsDNA (unknown origin) assessed as change in melting temperature by UV-vis spectrophotometry based DNA melting assay; assay type: nucleic-acid assay
[2] = system: Poly(dA-dT)oligonucleotide; test: Displacement of ethidium bromide from minor groove of poly(dA:dT) dsDNA (unknown origin) by fluorescence spectrophotometry; assay type: nucleic-acid assay
[3] = system: HCC 2998; test: Growth inhibition of human HCC 2998 cells assessed as cell growth at 0.01 uM incubated for 48 hrs by sulforhodamine B assay relative to control; assay type: functional; details: read-out: Activity
[4] = system: SF-268; test: Growth inhibition of human SF-268 cells assessed as cell growth at 0.01 uM incubated for 48 hrs by sulforhodamine B assay relative to control; assay type: functional; details: read-out: Activity
[5] = system: SF-268; test: Growth inhibition of human SF-268 cells assessed as cell growth at 0.1 uM incubated for 48 hrs by sulforhodamine B assay relative to control; assay type: functional; details: read-out: Activity
[6] = system: Malme-3M; test: Growth inhibition of human Malme-3M cells assessed as cell growth at 0.1 uM incubated for 48 hrs by sulforhodamine B assay relative to control; assay type: functional; details: read-out: Activity
[7] = system: SK-MEL-5; test: Growth inhibition of human SK-MEL-5 cells assessed as cell growth at 0.1 uM incubated for 48 hrs by sulforhodamine B assay relative to control; assay type: functional; details: read-out: Activity
[8] = system: K562; test: Growth inhibition of human K562 cells assessed as cell growth at 1 uM incubated for 48 hrs by sulforhodamine B assay relative to control; assay type: functional; details: read-out: Activity
[9] = system: HCT-15; test: Growth inhibition of human HCT-15 cells assessed as cell growth at 1 uM incubated for 48 hrs by sulforhodamine B assay relative to control; assay type: functional; details: read-out: Activity
[10] = system: KM12; test: Growth inhibition of human KM12 cells assessed as cell growth at 1 uM incubated for 48 hrs by sulforhodamine B assay relative to control; assay type: functional; details: read-out: Activity
[11] = system: SNB-19; test: Growth inhibition of human SNB-19 cells assessed as cell growth at 1 uM incubated for 48 hrs by sulforhodamine B assay relative to control; assay type: functional; details: read-out: Activity
[12] = system: OVCAR-3; test: Growth inhibition of human OVCAR-3 cells assessed as cell growth at 1 uM incubated for 48 hrs by sulforhodamine B assay relative to control; assay type: functional; details: read-out: Activity
[13] = system: OVCAR-8; test: Growth inhibition of human OVCAR-8 cells assessed as cell growth at 1 uM incubated for 48 hrs by sulforhodamine B assay relative to control; assay type: functional; details: read-out: Activity
[14] = system: CCRF-CEM; test: Growth inhibition of human CCRF-CEM cells assessed as cell growth at 10 uM incubated for 48 hrs by sulforhodamine B assay relative to control; assay type: functional; details: read-out: Activity
[15] = system: HOP-62; test: Growth inhibition of human HOP-62 cells assessed as cell growth at 10 uM incubated for 48 hrs by sulforhodamine B assay relative to control; assay type: functional; details: read-out: Activity
[16] = system: COLO 205; test: Growth inhibition of human COLO 205 cells assessed as cell growth at 10 uM incubated for 48 hrs by sulforhodamine B assay relative to control; assay type: functional; details: read-out: Activity
[17] = system: HCC 2998; test: Growth inhibition of human HCC 2998 cells assessed as cell growth at 10 uM incubated for 48 hrs by sulforhodamine B assay relative to control; assay type: functional; details: read-out: Activity
[18] = system: SF-268; test: Growth inhibition of human SF-268 cells assessed as cell growth at 10 uM incubated for 48 hrs by sulforhodamine B assay relative to control; assay type: functional; details: read-out: Activity
[19] = system: SF-295; test: Growth inhibition of human SF-295 cells assessed as cell growth at 10 uM incubated for 48 hrs by sulforhodamine B assay relative to control; assay type: functional; details: read-out: Activity
[20] = system: SF-539; test: Growth inhibition of human SF-539 cells assessed as cell growth at 10 uM incubated for 48 hrs by sulforhodamine B assay relative to control; assay type: functional; details: read-out: Activity
[21] = system: LOX IMVI; test: Growth inhibition of human LOX IMVI cells assessed as cell growth at 10 uM incubated for 48 hrs by sulforhodamine B assay relative to control; assay type: functional; details: read-out: Activity
[22] = system: Malme-3M; test: Growth inhibition of human Malme-3M cells assessed as cell growth at 10 uM incubated for 48 hrs by sulforhodamine B assay relative to control; assay type: functional; details: read-out: Activity
[23] = system: M14; test: Growth inhibition of human M14 cells assessed as cell growth at 10 uM incubated for 48 hrs by sulforhodamine B assay relative to control; assay type: functional; details: read-out: Activity
[24] = system: OVCAR-4; test: Growth inhibition of human OVCAR-4 cells assessed as cell growth at 10 uM incubated for 48 hrs by sulforhodamine B assay relative to control; assay type: functional; details: read-out: Activity
[25] = system: A498; test: Growth inhibition of human A498 cells assessed as cell growth at 10 uM incubated for 48 hrs by sulforhodamine B assay relative to control; assay type: functional; details: read-out: Activity
[26] = system: ACHN; test: Growth inhibition of human ACHN cells assessed as cell growth at 10 uM incubated for 48 hrs by sulforhodamine B assay relative to control; assay type: functional; details: read-out: Activity
[27] = system: CAKI-1; test: Growth inhibition of human CAKI-1 cells assessed as cell growth at 10 uM incubated for 48 hrs by sulforhodamine B assay relative to control; assay type: functional; details: read-out: Activity
[28] = system: DU-145; test: Growth inhibition of human DU-145 cells assessed as cell growth at 10 uM incubated for 48 hrs by sulforhodamine B assay relative to control; assay type: functional; details: read-out: Activity
[29] = system: MCF7; test: Growth inhibition of human MCF7 cells assessed as cell growth at 10 uM incubated for 48 hrs by sulforhodamine B assay relative to control; assay type: functional; details: read-out: Activity
[30] = system: MDA-MB-231; test: Growth inhibition of human MDA-MB-231 cells assessed as cell growth at 10 uM incubated for 48 hrs by sulforhodamine B assay relative to control; assay type: functional; details: read-out: Activity
[31] = system: Hs-578T; test: Growth inhibition of human Hs-578T cells assessed as cell growth at 10 uM incubated for 48 hrs by sulforhodamine B assay relative to control; assay type: functional; details: read-out: Activity
[32] = system: MDA-MB-468; test: Growth inhibition of human MDA-MB-468 cells assessed as cell growth at 10 uM incubated for 48 hrs by sulforhodamine B assay relative to control; assay type: functional; details: read-out: Activity
[33] = system: A549; test: Growth inhibition of human A549/ATCC cells assessed as cell growth at 100 uM incubated for 48 hrs by sulforhodamine B assay relative to control; assay type: functional; details: read-out: Activity
[34] = system: HT-29; test: Growth inhibition of human HT-29 cells assessed as cell growth at 100 uM incubated for 48 hrs by sulforhodamine B assay relative to control; assay type: functional; details: read-out: Activity
[35] = system: CAKI-1; test: Growth inhibition of human CAKI-1 cells assessed as cell growth at 100 uM incubated for 48 hrs by sulforhodamine B assay relative to control; assay type: functional; details: read-out: Activity
[36] = system: SF-295; test: Growth inhibition of human SF-295 cells incubated for 48 hrs by sulforhodamine B assay; assay type: functional
[37] = system: OVCAR-3; test: Growth inhibition of human OVCAR-3 cells incubated for 48 hrs by sulforhodamine B assay; assay type: functional
[38] = system: RXF 393; test: Growth inhibition of human RXF 393 cells incubated for 48 hrs by sulforhodamine B assay; assay type: functional

CC(=O)Nc1cc(CCl)cc(NC(=O)c2ccc(C(=O)Nc3cccc(NC(=O)CCCN(C)C)c3)cc2)c1
ΔTm [1]: 38.7 °C | C50 [2]: 9.9 µM | growth at 0.01 µM [3]: 102% | growth at 0.01 µM [4]: 100% | growth at 0.1 µM [5]: 101% | growth at 0.1 µM [6]: 104% | growth at 0.1 µM [7]: 92% | growth at 1 µM [8]: 96% | growth at 1 µM [9]: 90% | growth at 1 µM [10]: 107% | growth at 1 µM [11]: 104% | growth at 1 µM [12]: 109% | growth at 1 µM [13]: 101% | growth at 10 µM [14]: 114% | growth at 10 µM [15]: 106% | growth at 10 µM [16]: 105% | growth at 10 µM [17]: 99% | growth at 10 µM [18]: 101% | growth at 10 µM [19]: 66% | growth at 10 µM [20]: 100% | growth at 10 µM [21]: 92% | growth at 10 µM [22]: 100% | growth at 10 µM [23]: 104% | growth at 10 µM [24]: 99% | growth at 10 µM [25]: 87% | growth at 10 µM [26]: 99% | growth at 10 µM [27]: 104% | growth at 10 µM [28]: 106% | growth at 10 µM [29]: 71% | growth at 10 µM [30]: 106% | growth at 10 µM [31]: 111% | growth at 10 µM [32]: 91% | growth at 100 µM [33]: 88% | growth at 100 µM [34]: 51% | growth at 100 µM [35]: 100% | GI50 ([36]; read-out: GI50): 37.8 µM | LC50 ([36]; read-out: LC50): > 100 µM | TGI ([36]; read-out: TGI): > 100 µM | GI50 ([36]; read-out: pGI50 (converted)): 38 µM | LC50 ([36]; read-out: pLC50 (converted)): > 100 µM | TGI ([36]; read-out: pTGI): > 100 µM | GI50 ([37]; read-out: GI50): > 100 µM | LC50 (50% lethal concentration) ([37]; read-out: LC50): > 100 µM | TGI ([37]; read-out: TGI): > 100 µM | GI50 ([37]; read-out: pGI50 (converted)): > 100 µM | LC50 (50% lethal concentration) ([37]; read-out: pLC50 (converted)): > 100 µM | TGI ([37]; read-out: pTGI): > 100 µM | GI50 ([38]; read-out: GI50): > 100 µM | CC50 ([38]; read-out: LC50 (the source's name)): > 100 µM | TGI ([38]; read-out: TGI): > 100 µM | GI50 ([38]; read-out: pGI50 (converted)): > 100 µM | CC50 ([38]; read-out: pLC50 (the source's name) (converted)): > 100 µM | TGI ([38]; read-out: pTGI): > 100 µM

From ChEMBL document CHEMBL4715697, “Synthesis and biological activity of benzamide DNA minor groove binders” (2016)
